Data from patent publication US20170268001A1, “RNAS WITH TUMOR RADIO/CHEMO-SENSITIZING AND IMMUNOMODULATORY PROPERTIES AND METHODS OF THEIR PREPARATION AND APPLICATION” (THE UNIVERSITY OF CHICAGO, priority 2016, published 2017).

T1: RIG-I (Homo sapiens, UniProt O95786)
T1 construct: HEK293 cells overexpressing either the full length RIG-I; host or cells: HEK293; HCT116 also for the qRT-PCR validation
T1 sequence (O95786 1-925): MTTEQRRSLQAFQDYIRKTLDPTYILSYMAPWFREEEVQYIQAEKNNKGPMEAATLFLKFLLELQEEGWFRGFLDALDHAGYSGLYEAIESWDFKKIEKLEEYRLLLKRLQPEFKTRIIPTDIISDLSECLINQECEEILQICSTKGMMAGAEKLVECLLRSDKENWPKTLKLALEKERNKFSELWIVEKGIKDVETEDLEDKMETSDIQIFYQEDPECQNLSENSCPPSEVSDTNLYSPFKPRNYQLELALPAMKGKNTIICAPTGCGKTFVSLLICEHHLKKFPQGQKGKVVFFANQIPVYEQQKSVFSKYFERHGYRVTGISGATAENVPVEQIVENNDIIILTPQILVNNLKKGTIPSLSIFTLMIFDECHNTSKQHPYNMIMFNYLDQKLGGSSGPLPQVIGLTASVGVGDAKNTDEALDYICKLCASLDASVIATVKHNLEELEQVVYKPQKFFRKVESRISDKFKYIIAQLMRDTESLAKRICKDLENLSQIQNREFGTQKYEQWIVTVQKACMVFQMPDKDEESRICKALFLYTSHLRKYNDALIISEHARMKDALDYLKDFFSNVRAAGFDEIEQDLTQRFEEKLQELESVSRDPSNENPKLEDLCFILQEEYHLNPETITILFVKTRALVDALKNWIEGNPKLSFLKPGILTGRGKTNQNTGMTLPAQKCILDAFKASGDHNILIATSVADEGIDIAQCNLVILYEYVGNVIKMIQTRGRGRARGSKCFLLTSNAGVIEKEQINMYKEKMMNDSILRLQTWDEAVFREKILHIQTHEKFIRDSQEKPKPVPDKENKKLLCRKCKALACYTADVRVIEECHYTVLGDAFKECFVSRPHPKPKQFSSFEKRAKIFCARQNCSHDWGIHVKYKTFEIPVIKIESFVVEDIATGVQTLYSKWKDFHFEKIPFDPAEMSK

B1: M5: rbRNA, RIG-I agonist, 81 nucleotides, SEQ ID NO:26 (nucleic acid)
chain: GACGAAGACCACAAAACCAGATAAAAAATTATTTTTTATCTGGTTTTGTGGTCTTCGTCTATAGTGAGTCGTATTAATTTC
modifications: listed as DNA, chemistry not given here

What was measured:
RIG-I = target: T1, RIG-I; experiment: RNA sequencing of RNA bound to RIG-I (RIG-I pulldown) after IR; type: binding
Procedure: Technically, identification of RNAs was performed as follows: […] Cambridge, Mass.). Twenty-four hours post-transfection, cells were either mock-irradiated or exposed to IR (6 Gy). […] Cell lysates were separated from cell debris by centrifugation at 12,000 rpm at 4° C. Protein concentration was measured by BCA kit. Anti-FLAG monoclonal antibody was added to the cell lysate at a 1:500 dilution, and incubated overnight at 4° C. Protein G sepharose beads were added to the lysates and incubated for at least 2 hours at 4° C. […] Proteinase K was added to the eluates and incubated at 50° C. for 45 minutes. Trizol reagent was then added to the solution, and RNA bound to RIG-I was purified following manufacturer's protocol. RNA quality was analyzed using an Agilent Bioanalyzer 2100 with Pico Series II cartridges. RNA yield was measured using the Qubit RNA Broad Range kit. For qRT-PCR validation experiments of RIG-I pulled down RNA, UV cross-linking (2 doses at 150 mJ/cm^2) was performed on HEK293 and HCT116 overexpressing RIG-I prior to cell lysis. The same protocol for pulldown and RNA purification experiments was performed as described above. We eluted total RNA and RNA bound to RIG-I from RIG-I over-expressing HEK293 cells 48 hours post IR (6 Gy). […] Libraries were sequenced on Illumina HiSeq2500 instrument to generate 50 bp pair-ended reads. Sequencing files in FastQ format were processed using AlienTrimmer (Criscuolo A and Brisse S, 2013) to remove adapter sequences and to trim low quality reads with Phred quality score <20. The preprocessed reads were aligned to the human reference genome (Ensembl GRCh38) using Spliced Transcripts Alignment to a Reference (STAR) software (Dobin et al., 2013). The featureCounts tool from Bioconductor package RSubread was used to summarize and quantify the abundances of genomic features of the mapped reads (Liao et al., 2013). Mapped reads were annotated using human GENCODE version 20 (Harrow et al., 2012) and were summarized to 35 gene/transcript and non-coding RNA biotypes annotated in GENCODE/Ensemble databases. RepEnrich program (Criscione et al., 2014) was used to identify and quantify the repetitive elements. The program uses Bowtie (Langmead et al., 2009) to align the reads to the human reference genome (Ensembl GRCh38) and human repetitive element pseudogenomes built upon […] annotation library hg38.fa.out.gz (available at […].org on the World Wide Web). The mapped reads were summarized by repetitive element subfamilies, families and classes (Tables 3, 4 and 5). […]

MC38 tumors = experiment: MC38 tumor growth after IR (20Gy) plus intratumoral RNA with jetPEI; type: in vivo, mouse; details: in combination with jetPEI lipid and IR (20Gy); injected 1, 7 and 14 days post-IR
Procedure: To further test ability of delivered RNAs to affect tumor growth we irradiated MC38 tumors at 20Gy and injected irradiated tumors with stem-loop regions of U1 or U2 at 1, 7 and 14 dayspost-IR. Tumors were grown for 17 days post IR and each 3rd day were measured as described in. As is shown in FIG. 40, injection of stem-loop structures of U1 in combination with jetPEI lipid and IR led to the 2-fold suppression of tumor growth as compared with IR only.
To further test ability of delivered synthetic RNAs (M5 and M8) to affect tumor growth we irradiated MC38 tumors at 20Gy and injected irradiated tumors 1, 7 and 14 dayspost-IR. Tumors were grown for 17 days post IR and each 3rd day were measured as described in. Injection of synthetic RNAs, M5 and M8, in combination with jetPEI lipid and IR led to the 2-fold suppression of tumor growth as compared with IR only.

[1] = Top 50 RIG-I binding RNAs, RepeatMasker annotations, RIG-I pulldown vs total RNA, HEK293, 48 h post IR (6 Gy)

| Molecule | log2FC (RIG-I; All mapped reads identified using RepeatMasker) | Mean log2FC (RIG-I; RepeatMasker annotations, mean of set 1 and set 2) | log2FC (set 1) (RIG-I; [1]) | log2FC (set 2) (RIG-I; [1]) | suppression of tumor growth as compared with IR only (MC38 tumors) [fold] |
| --- | --- | --- | --- | --- | --- |
| U2: snRNA, SEQ ID NO:21 | 5.983 | 3.948 | 5.983 | 1.914 |  |
| B1 |  |  |  |  | 2 |
